In patent US10301292B2, “Bicyclic compound” (Takeda Pharmaceutical Company Limited, priority 2014, dated 2019):

Assays:
[1] = test system: HCT116 cells; experiment: Growth inhibitory activity on HCT116 cell (CellTiter-Glo); format: cell-based; settings: table head: 10 μM (text b2498: 1 μM), 3 days incubation; for inhibition at 10 µM: Homo sapiens, HCT-116, 72 h, read-out: HCT116 cell proliferation inhibitory rate (%) at 10 μM
Description: The growth inhibitory activity of the compound on HCT116 cell was evaluated by the following method.
HCT116 cells were seeded in a 384 well blackplate at 900 cells/30 μL/well, and maintained in an RPMI medium (Wako)) containing an assay medium (2% fetal bovine serum, 50 Unit/mL penicillin, 50 μg/mL streptomycin (Invitrogen). The next day, a test compound dissolved in dimethyl sulfoxide (DMSO) was diluted with the assay medium, and the obtained compound solution was added by 10 μL to each well of a plate containing HCT116 cells and incubated at 37° C., 5% CO2 (test compound addition group).
A similar reaction was performed without adding a test compound (test compound non-addition group).
Furthermore, a similar reaction was performed under the conditions without adding HCT116 cell and a test compound (control group).
After 3 days, 20 μL of a CellTiter-Glo reagent (Promega KK) was added to the well, and the mixture was stirred for 10 min. Thereafter, the luminescence value of each well was measured by the EnVision™ multilabel counter (Perkin Elmer Inc.).
The HCT116 cell proliferation inhibitory rate (%) of the test compound was determined by the following calculation formula. (1−(luminescence of test compound addition group−luminescence of control group)÷(luminescence of test compound nonaddition group−luminescence of control group))×100

[2] = target: T1, human ACC1 (Homo sapiens, UniProt Q13085); experiment: Measurement of ACC1 inhibitory activity (Malonyl-CoA production, RapidFire-mass spectrometry); format: biochemical; settings: 10 μM of the test compound, recombinant human ACC1; for inhibition at 10 µM: read-out: ACC1 inhibitory rate (%) at 10 μM
T1 construct: His tag (from vector pFAST-BacHTc; protein captured on Ni-NTA) (N); made in house; host or cells: SF-9 insect cells, recombinant baculovirus BAC-ACC1
Description: (1) Cloning of Human ACC1 Gene and Preparation of Recombinant Baculovirus
Human ACC1 gene was cloned by PCR using a human liver cDNA library (Clontech) as a template and Primer 1 and Primer 2 shown below. Primer 1 and Primer 2 were prepared by adding SalI, NotI restriction enzyme recognition sequences based on the information of the base sequence of human ACC1 gene (Genbank Accession U19822).
PCR was performed using Pyrobest DNA polymerase (TAKARA BIO INC.). The obtained PCR product was cloned to pT7 Blue vector (Novagen) and after confirmation of the base sequence, digested with restriction enzymes SalI and XbaI. The obtained DNA fragment was inserted into pFAST-BacHTc (Invitrogen) digested with restriction enzymes SalI and XbaI to give expression plasmid ACC1/pFAST-BacHTc.
Using the expression plasmid ACC1/pFAST-BacHTc and BAC-TO-BAC Baculovirus Expression System (Invitrogen), virus stock BAC-ACC1 of recombinant Baculovirus was prepared.
(2) Preparation of ACC1 Protein
SF-9 cells (Invitrogen) were inoculated to a medium (10 L) for insect cells (Sf-900IISFM medium (Invitrogen) containing 5% fetal bovine serum (Trace), 50 mg/L Gentamicin (Wako Pure Chemical Industries, Ltd.), 0.1% Pluronic F-68 (Invitrogen)) at 1.0×10^6 cells/mL, and cultured with shaking in Wave Bioreactor (GE Healthcare) at 27° C., 20 rpm, rocking angle 10°, oxygen concentration 30%.
On day 2 of the culture, recombinant Baculovirus BAC-ACC1 was added, and the cells were cultured for 3 days. The culture medium was centrifuged at 4000×g for 10 min to give virus-infected cells. The cells were washed with phosphate buffered saline (Invitrogen) and centrifuged under the same conditions. The obtained cells were cryopreserved at −80° C.
The cryopreserved cells were thawed in ice and suspended in 800 mL of 25 mM HEPES buffer (pH 7.5) containing 10% Glycerol, 0.3 M NaCl, 1 mM EDTA, 25 mM Sodium β-Glycerophosphate and 1 mM Sodium Orthovanadate, and supplemented with Complete Protease Inhibitor (Roche). The obtained suspension was homogenized two times in a polytron homogenizer (Kinematica) at 20,000 rpm for 20 sec. The obtained cell disruption solution was clarified by centrifugation at 186,000×g for 60 min and the supernatant was passed through Ni-NTA Superflow Cartridges (5 mL) (QUIAGEN). Furthermore, it was washed with 25 mM HEPES buffer (pH 7.5) containing 20 mM Imidazole, 0.3 M NaCl, and eluted with 25 mM HEPES buffer (pH 7.5) containing 250 mM Imidazol, 0.3 M NaCl. The eluate was concentrated by Amicon Ultra-15 (Nihon Millipore K.K.) having a fraction molecular weight of 50K. The obtained concentrate was subjected to gel filtration with 50 mM HEPES buffer (pH 7.5) containing 10 mM MgCl2, 2 mM dithiothreitol, 10 mM tripotassium citrate, 0.3 M NaCl by using HiLoad 26/60 Superdex200 prep grade gel filtration column (GE Healthcare) to give ACC1. The obtained ACC1 was cryopreserved at −80° C.
(3) Measurement of ACC1 Inhibitory Activity
ACC1 obtained in the above-mentioned (2) was diluted with an enzyme reaction buffer (50 mM HEPES (pH 7.5), 10 mM MgCl2, 10 mM Tripottasium Citrate, 2 mM Dithiothreitol, 0.001% Fatty acid free BSA) to a concentration of 0.2 μg/ml, and the mixture was added to each well of a 384 well assay plate by 10 μl. A test compound dissolved in dimethyl sulfoxide (DMSO) was diluted with an enzyme reaction buffer and the resulting solution (5 μl) was added to each well. The mixture was incubated at room temperature for 60 min. Then, a substrate solution (50 mM KHCO3, 200 μM ATP, 200 μM Acetyl-CoA, 5 μl) was added to each well, and the mixture was reacted at room temperature for 30 min. The reaction was quenched by adding a reaction quenching liquid (1.3% formic acid, 0.2 μM Malonyl-^13C3-CoA) by 60 μL each to the obtained reaction mixtures (test compound addition group).
In addition, a reaction was performed in the same manner as above and without adding the test compound (test compound non-addition group). […]

Structure (SMILES) | inhibition at 10 µM [2] | ACC1 inhibitory rate (%) at 10 μM [2] | inhibition at 10 µM [1] | HCT116 cell proliferation inhibitory rate (%) at 10 μM [1]
CC(NC(=O)N(C)C)c1ccc2nc(-c3ccc(Oc4cccc(OCC5CC5)c4)nc3)oc2c1 (centres unmarked) [Example 101, 3-(1-(2-(6-(3-(cyclopropylmethoxy)phenoxy)pyridin-3-yl)-1,3-benzoxazol-6-yl)ethyl)-1,1-dimethylurea] | 96% | – | 30% | –
CC(=O)NC(C)c1cc2cc(-c3ccc(Oc4cccc(OCC5CC5)c4)cc3)ccc2o1 (centres unmarked) [Example 52, N-(1-(5-(4-(3-(cyclopropylmethoxy)phenoxy)phenyl)-1-benzofuran-2-yl)ethyl)acetamide] | 94% | – | 20% | –
CC(=O)NC(C)c1ccc2nc(N3CC(Oc4cccc(OCC5CC5)c4)C3)oc2c1 (centres unmarked) [Example 1, N-(1-(2-(3-(3-(cyclopropylmethoxy)phenoxy)azetidin-1-yl)-1,3-benzoxazol-6-yl)ethyl)acetamide] | 100% | – | – | 12%
CC(=O)NC(C)c1ccc2cc(-c3ccc(Oc4cccc(OCC5CC5)c4)cc3)nn2c1 (centres unmarked) [Example 86, N-(1-(2-(4-(3-(cyclopropylmethoxy)phenoxy)phenyl)pyrazolo[1,5-a]pyridin-6-yl)ethyl)acetamide] | 95% | – | 34% | –
CC(NC(N)=O)c1ccc2nc(-c3ccc(Oc4cccc(OCC5CC5)c4)nn3)oc2c1 (centres unmarked) [Example 110, 1-(1-(2-(6-(3-(cyclopropylmethoxy)phenoxy)pyridazin-3-yl)-1,3-benzoxazol-6-yl)ethyl)urea] | 98% | – | – | –
CCCn1cc(Oc2ccc(-c3nc4ccc(C(C)NC(C)=O)cc4o3)cn2)ccc1=O (centres unmarked) [Example 102, N-(1-(2-(6-((6-oxo-1-propyl-1,6-dihydropyridin-3-yl)oxy)pyridin-3-yl)-1,3-benzoxazol-6-yl)ethyl)acetamide] | 94% | – | 30% | –
CC(=O)NC(C)c1ccc2c(c1)CC(c1ccc(Oc3cccc(OCC4CC4)c3)cn1)O2 (centres unmarked) [Example 36b, N-(1-(2-(5-(3-(cyclopropylmethoxy)phenoxy)pyridin-2-yl)-2,3-dihydro-1-benzofuran-5-yl)ethyl)acetamide] | – | 101% | – | –
CCCCCc1cccc(OC2CN(c3nc4ccc(C(C)NC(C)=O)cc4o3)C2)c1 (centres unmarked) [Example 29, N-(1-(2-(3-(3-pentylphenoxy)azetidin-1-yl)-1,3-benzoxazol-6-yl)ethyl)acetamide] | 82% | – | – | –

Second part, led by results:

inhibition at 10 µM [2] | ACC1 inhibitory rate (%) at 10 μM [2] | Structure (SMILES) | inhibition at 10 µM [1] | HCT116 cell proliferation inhibitory rate (%) at 10 μM [1]
100% | – | CC(=O)NC(C)c1cc2cc(-c3cnc(Oc4cccc(OCC5CC5)c4)cn3)ccc2o1 (centres unmarked) [Example 103, N-(1-(5-(5-(3-(cyclopropylmethoxy)phenoxy)pyrazin-2-yl)-1-benzofuran-2-yl)ethyl)acetamide] | 29% | –
100% | – | CC(=O)NC(C)c1ccc2cc(-c3ccc(Oc4cccc(OC[C@@H]5CC5(F)F)c4)nc3)oc2c1 (stereo partly drawn) [Example 68, N-(1-(2-(6-(3-(((1S)-2,2-difluorocyclopropyl)methoxy)phenoxy)pyridin-3-yl)-1-benzofuran-6-yl)ethyl)acetamide] | 39% | –
– | 96% | CC(=O)NC(C)C1CCc2nc(-c3ccc(Oc4cccc(OCC5CC5)c4)cc3)oc2C1 (centres unmarked) [Example 95b, N-(1-(2-(4-(3-(cyclopropylmethoxy)phenoxy)phenyl)-4,5,6,7-tetrahydro-1,3-benzoxazol-6-yl)ethyl)acetamide] | – | 20%
97% | – | CC(NC(N)=O)c1ccc2nc(-c3ccc(Oc4cccc(OCC(C)(F)F)c4)nc3)oc2c1 (centres unmarked) [Example 107, 1-(1-(2-(6-(3-(2,2-difluoropropoxy)phenoxy)pyridin-3-yl)-1,3-benzoxazol-6-yl)ethyl)urea] | 32% | –
100% | – | CC(=O)NC(C)c1ccc2c(c1)CC(c1ccc(Oc3cccc(OCC4CC4)c3)cn1)O2 (centres unmarked) [Example 36, N-(1-(2-(5-(3-(cyclopropylmethoxy)phenoxy)pyridin-2-yl)-2,3-dihydro-1-benzofuran-5-yl)ethyl)acetamide] | – | –
100% | – | CC(=O)NC(C)c1ccc2nc(-c3ccc(Oc4cccc(OC[C@@H]5CC5(F)F)c4)nc3)oc2c1 (stereo partly drawn) [Example 80, N-(1-(2-(6-(3-(((1S)-2,2-difluorocyclopropyl)methoxy)phenoxy)pyridin-3-yl)-1,3-benzoxazol-6-yl)ethyl)acetamide] | 33% | –
90% | – | CC(=O)NC(C)c1ccc2sc(-c3ccc(Oc4cccc(OCC5CC5)c4)cc3)cc2c1 (centres unmarked) [Example 73, N-(1-(2-(4-(3-(cyclopropylmethoxy)phenoxy)phenyl)-1-benzothiophen-5-yl)ethyl)acetamide] | 28% | –
94% | – | CC(=O)NC(C)c1ccc2cc(-c3ccc(Oc4cccc(OCC5CC5)c4)cn3)oc2c1 (centres unmarked) [Example 35, N-(1-(2-(5-(3-(cyclopropylmethoxy)phenoxy)pyridin-2-yl)-1-benzofuran-6-yl)ethyl)acetamide] | 41% | –
94% | – | CCCOc1cccc(Oc2ccc(-c3nc4ccc(C(C)NC(C)=O)cc4o3)nc2)c1 (centres unmarked) [Example 12, N-(1-(2-(5-(3-propoxyphenoxy)pyridin-2-yl)-1,3-benzoxazol-6-yl)ethyl)acetamide] | – | –
94% | – | CC(=O)NC(C)c1ccc2cn(-c3ccc(Oc4cccc(OCC5CC5)c4)cc3)nc2c1 (centres unmarked) [Example 56, N-(1-(2-(4-(3-(cyclopropylmethoxy)phenoxy)phenyl)-2H-indazol-6-yl)ethyl)acetamide] | – | –
94% | – | CC(=O)NC(C)c1ccc2nc(-c3ccc(Oc4cccc(OCC5CC5)c4)cc3)oc2c1C (centres unmarked) [Example 93, N-(1-(2-(4-(3-(cyclopropylmethoxy)phenoxy)phenyl)-7-methyl-1,3-benzoxazol-6-yl)ethyl)acetamide] | – | –
82% | – | CC(=O)NC(C)c1ccc2nc(-c3ncc(Oc4cccc(OCC5CC5)c4)cc3C)oc2c1 (centres unmarked) [Example 47, N-(1-(2-(5-(3-(cyclopropylmethoxy)phenoxy)-3-methylpyridin-2-yl)-1,3-benzoxazol-6-yl)ethyl)acetamide] | – | –
